Results as given in the NIST ThermoML archive (doi:10.1021/je060271a).

Conditions: 283.16 K, Liquid, Vibrating tube method

CCCCCC(=O)OCC(COC(=O)CCCCC)(COC(=O)CCCCC)COC(=O)CCCCC [pentaerythritol tetrahexanoate]
Conditions | mass density [kg/m3]
227.4 kPa | 1004.4
235.2 kPa | 1004.3
235.3 kPa | 1004.3
237.1 kPa | 1004.4
361.3 kPa | 1004.3
363.1 kPa | 1004.3
365.9 kPa | 1004.3
403.2 kPa | 1004.4
405.8 kPa | 1004.3
408.6 kPa | 1004.4
410.7 kPa | 1004.4
439.2 kPa | 1004.4
500.7 kPa | 1004.3
504.2 kPa | 1004.4
508.2 kPa | 1004.5
663.2 kPa | 1004.4
669.2 kPa | 1004.5
813.4 kPa | 1004.5
1597.6 kPa | 1005.1
1612.4 kPa | 1005
1627.1 kPa | 1005.2
1642.8 kPa | 1005.2
1657.5 kPa | 1005.1
1675.4 kPa | 1005.1
1690.5 kPa | 1005.2
1705.1 kPa | 1005.2
1720 kPa | 1005.1
1767.2 kPa | 1005.1
1782.2 kPa | 1005.2
1800 kPa | 1005.2
1833.4 kPa | 1005.3
1844.8 kPa | 1005.2
2221.4 kPa | 1005.5
2237 kPa | 1005.5
2251.7 kPa | 1005.5
2267.5 kPa | 1005.4
2279.3 kPa | 1005.5
2540.2 kPa | 1005.7
2564.1 kPa | 1005.7
2812.8 kPa | 1005.7
2855.3 kPa | 1005.8
3252.2 kPa | 1006
3270.9 kPa | 1006.1
3286.9 kPa | 1006.1
3302.6 kPa | 1006.1
3318.6 kPa | 1006.2
3372.5 kPa | 1006.1
3388.4 kPa | 1006.1
3420.8 kPa | 1006.1
3440.8 kPa | 1006.1
3456.7 kPa | 1006.1
3473.5 kPa | 1006.1
3493.4 kPa | 1006.3
3510.2 kPa | 1006.3
3530.5 kPa | 1006.2
3547.3 kPa | 1006.3
3564.3 kPa | 1006.2
3581.1 kPa | 1006.3
3601.7 kPa | 1006.3
3619.1 kPa | 1006.3
3636 kPa | 1006.1
3657.3 kPa | 1006.3
3674.7 kPa | 1006.2
3692.2 kPa | 1006.3
3709.8 kPa | 1006.3
3730.8 kPa | 1006.4
3748.8 kPa | 1006.3
3766.1 kPa | 1006.4
3784.2 kPa | 1006.4
3805.3 kPa | 1006.3
3823 kPa | 1006.3
3841.3 kPa | 1006.5
